Test results as given in patent publication US20100291041A1, “BACTERIOPHAGE PREPARATION AND USE” (INNOVATIONS-TRANSFER UPHOFF GMBH & CO. KG, priority 2008, published 2010).

Legend:
P. aeruginosa biofilms = details: combination with ultrasound below 70 kHz; Qian et al. 1997; cited from earlier work
[1] = own microbiological tests
Pseudomonas aeruginosa = Pseudomonas aeruginosa versus Staphylococcus aureus; from EP 0 700 249 B1; cited from earlier work
[2] = use in wounds, albumin present; from EP 0 700 249 B1; cited from earlier work

Substance | increase in effect versus antibiotic alone (P. aeruginosa biofilms) | loss of action by the factor (effect of albumin) [1] | activity lower by a factor, in comparison with Staphylococcus aureus (Pseudomonas aeruginosa) | loss of action caused by albumin (in wounds) [2]
gentamicin | > 250% | – | – | –
polyhexamethylene biguanide [polyhexanide] | – | about 10 | ~10 | considerable loss of action
